Source: patent US10519154B2, “7-substituted 1-pyridyl-naphthyridine-3-carboxylic acid amides and use thereof” (Bayer Pharma Aktiengesellschaft, priority 2016, dated 2019)

Biological target: T1, human M2 receptor (Homo sapiens, UniProt P08172)
T1 sequence (P08172 1-466): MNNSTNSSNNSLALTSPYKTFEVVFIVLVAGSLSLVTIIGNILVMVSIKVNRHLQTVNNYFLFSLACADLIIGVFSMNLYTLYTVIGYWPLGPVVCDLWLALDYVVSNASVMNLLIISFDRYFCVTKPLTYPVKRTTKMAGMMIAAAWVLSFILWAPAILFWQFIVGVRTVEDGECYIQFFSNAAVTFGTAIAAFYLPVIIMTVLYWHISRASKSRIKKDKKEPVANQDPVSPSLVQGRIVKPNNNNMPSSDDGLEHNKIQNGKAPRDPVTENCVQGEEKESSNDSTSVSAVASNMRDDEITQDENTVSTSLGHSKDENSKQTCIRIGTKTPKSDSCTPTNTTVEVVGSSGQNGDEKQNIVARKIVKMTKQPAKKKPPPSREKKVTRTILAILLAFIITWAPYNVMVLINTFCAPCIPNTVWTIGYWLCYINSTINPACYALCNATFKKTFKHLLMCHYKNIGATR
Assay: Functional M2-GIRK1/4 activation test: allosteric potency (EC50) and efficiency
Settings: for EC50: Receptor activity EC50, CHO-DUKX-M2-GIRK cells, acetylcholine at EC20, in some cases mean of two or more determinations; for Emax: read-out: Efficiency, boosting of the acetylcholine effect at EC20 acetylcholine concentration

Structure (SMILES)	EC50 [µM]	Emax (CHO-DUKX-M2-GIRK cells) [%]	Efficiency (boosting of the acetylcholine effect at EC20 acetylcholine concentration, CHO-DUKX-M2-GIRK cells) [%]
CC[C@@H](NC(=O)c1cn(-c2ncc(F)cc2F)c2nc(N3CCC(C)(O)C3)ccc2c1=O)C(F)(F)F (mixture of isomers) [Example 46, 1-(3,5-Difluoropyridin-2-yl)-7-[3-hydroxy-3-methylpyrrolidin-1-yl]-4-oxo-N-[(2R)-1,1,1-trifluorobutan-2-yl]-1,4-dihydro-1,8-naphthyridine-3-carboxamide]	0.385	97	
CC(C)(NC(=O)c1cn(-c2ncc(F)cc2F)c2nc(N3CCCC[C@@H]3CO)ccc2c1=O)C(F)(F)C(F)(F)F [Example 173, 1-(3,5-Difluoropyridin-2-yl)-7-[(2R)-2-(hydroxymethyl)piperidin-1-yl]-4-oxo-N-(3,3,4,4,4-pentafluoro-2-methylbutan-2-yl)-1,4-dihydro-1,8-naphthyridine-3-carboxamide]	0.088	100	
O=C(NC1(C(F)(F)F)CCCC1)c1cn(-c2ncc(F)cc2F)c2nc(N3C[C@@H](O)CC3=O)ccc2c1=O [Example 79, 1-(3,5-Difluoropyridin-2-yl)-7-[(4S)-4-hydroxy-2-oxopyrrolidin-1-yl]-4-oxo-N-[1-(trifluoromethyl)cyclopentyl]-1,4-dihydro-1,8-naphthyridine-3-carboxamide]	0.054	100	
CC(C)(NC(=O)c1cn(-c2ncc(F)cc2F)c2nc(N3CCC(O)(CO)CC3)ccc2c1=O)C(F)(F)C(F)(F)F [Example 174, 1-(3,5-Difluoropyridin-2-yl)-7-[4-hydroxy-4-(hydroxymethyl)piperidin-1-yl]-4-oxo-N-(3,3,4,4,4-pentafluoro-2-methylbutan-2-yl)-1,4-dihydro-1,8-naphthyridine-3-carboxamide]	0.083	100	
O=C(NC(C1CC1)C(F)(F)F)c1cn(-c2ncc(F)cc2F)c2nc(N3CC[C@H](O)C3=O)ccc2c1=O (stereo partly drawn) [Example 25, N-[1-Cyclopropyl-2,2,2-trifluoroethyl]-1-(3,5-difluoropyridin-2-yl)-7-[(3S)-3-hydroxy-2-oxopyrrolidin-1-yl]-4-oxo-1,4-dihydro-1,8-naphthyridine-3-carboxamide]	0.21	98	
O=C(NC(c1ccccc1Cl)C(F)(F)F)c1cn(-c2ncc(F)cc2F)c2nc(N3C[C@@H](O)CC3=O)ccc2c1=O (single isomer, unassigned) [Example 6]	0.014	95	
O=C(NC(c1ccc(F)cc1)C(F)(F)F)c1cn(-c2ncc(F)cc2F)c2nc(N3C[C@@H](O)CC3=O)ccc2c1=O (single isomer, unassigned) [Example 13]	0.13		99.50
CC(NC(=O)c1cn(-c2ncc(F)cc2F)c2nc(N3C[C@@H](O)[C@H](O)C3)ccc2c1=O)C(F)(F)C(F)(F)F (single isomer, unassigned) [Example 89]	0.275	98	
CC(C)C[C@H](NC(=O)c1cn(-c2ncc(F)cc2F)c2nc(N3CCNC3=O)ccc2c1=O)C(F)(F)F [Example 157, 1-(3,5-Difluoropyridin-2-yl)-4-oxo-7-(2-oxoimidazolidin-1-yl)-N-[(2S)-1,1,1-trifluoro-4-methylpentan-2-yl]-1,4-dihydro-1,8-naphthyridine-3-carboxamide]	0.05	100	
O=C(NC(C1CC1)C(F)(F)F)c1cn(-c2ncc(F)cc2F)c2nc(N3C[C@@H](O)[C@@H](O)C3)ccc2c1=O (stereo partly drawn) [Example 35, N-[1-Cyclopropyl-2,2,2-trifluoroethyl]-1-(3,5-difluoropyridin-2-yl)-7-[(3R,4S)-3,4-dihydroxypyrrolidin-1-yl]-4-oxo-1,4-dihydro-1,8-naphthyridine-3-carboxamide]	0.17	99.5	
CC(NC(=O)c1cn(-c2ncc(F)cc2F)c2nc(N3CC4(COC4)C3)ccc2c1=O)C(F)(F)C(F)(F)F (single isomer, unassigned) [Example 181, 1-(3,5-Difluoropyridin-2-yl)-7-(2-oxa-6-azaspiro[3.3]hept-6-yl)-4-oxo-N-[3,3,4,4,4-pentafluorobutan-2-yl]-1,4-dihydro-1,8-naphthyridine-3-carboxamide]	0.22	100	
CC[C@@H](NC(=O)c1cn(-c2ncc(F)cc2F)c2nc(NCC(F)F)ccc2c1=O)C(F)(F)F [Example 70, 7-[(2,2-Difluoroethyl)amino]-1-(3,5-difluoropyridin-2-yl)-4-oxo-N-[(2R)-1,1,1-trifluorobutan-2-yl]-1,4-dihydro-1,8-naphthyridine-3-carboxamide]	0.22	91	
O=C(N[C@@H](C1CC1)C(F)(F)F)c1cn(-c2ncc(F)cc2F)c2nc(N3C[C@@H](O)[C@H](O)C3)ccc2c1=O [Example 63, N-[(1S)-1-Cyclopropyl-2,2,2-trifluoroethyl]-1-(3,5-difluoropyridin-2-yl)-7-[(3R,4R)-3,4-dihydroxypyrrolidin-1-yl]-4-oxo-1,4-dihydro-1,8-naphthyridine-3-carboxamide]	0.17	100	
CC(C)C(NC(=O)c1cn(-c2ncc(F)cc2F)c2nc(N3C[C@@H](O)CC3=O)ccc2c1=O)C(F)(F)F (stereo partly drawn) [Example 154, 1-(3,5-Difluoropyridin-2-yl)-7-[(4S)-4-hydroxy-2-oxopyrrolidin-1-yl]-4-oxo-N-[1,1,1-trifluoro-3-methylbutan-2-yl]-1,4-dihydro-1,8-naphthyridine-3-carboxamide]	0.089	100	
CC[C@H](NC(=O)c1cn(-c2ncc(F)cc2F)c2nc(N3CC(O)C3)ccc2c1=O)C(F)(F)F [Example 133, 1-(3,5-Difluoropyridin-2-yl)-7-(3-hydroxyazetidin-1-yl)-4-oxo-N-[(2S)-1,1,1-trifluorobutan-2-yl]-1,4-dihydro-1,8-naphthyridine-3-carboxamide]	0.315	92	
O=C(NC12CC(C1)C2)c1cn(-c2ncc(F)cc2F)c2nc(N3C[C@@H](O)CC3=O)ccc2c1=O [Example 101, N-(Bicyclo[1.1.1]pent-1-yl)-1-(3,5-difluoropyridin-2-yl)-7-[(4S)-4-hydroxy-2-oxopyrrolidin-1-yl]-4-oxo-1,4-dihydro-1,8-naphthyridine-3-carboxamide]	0.585	78.5	
O=C(NC(CC(F)(F)F)C(F)(F)F)c1cn(-c2ncc(F)cc2F)c2nc(N3C[C@@H](O)CC3=O)ccc2c1=O (stereo partly drawn) [Example 159, 1-(3,5-Difluoropyridin-2-yl)-N-[1,1,1,4,4,4-hexafluorobutan-2-yl]-7-[(4S)-4-hydroxy-2-oxopyrrolidin-1-yl]-4-oxo-1,4-dihydro-1,8-naphthyridine-3-carboxamide]	0.094	100	
O=C(N[C@H](C1CC1)C(F)(F)F)c1cn(-c2ncccc2Cl)c2nc(N3CC4CC4(O)C3)ccc2c1=O (mixture of isomers) [Example 54, 1-(3-Chloropyridin-2-yl)-N-[(1R)-1-cyclopropyl-2,2,2-trifluoroethyl]-7-[1-hydroxy-3-azabicyclo[3.1.0]hex-3-yl]-4-oxo-1,4-dihydro-1,8-naphthyridine-3-carboxamide]	0.35	94.7	
O=C(Nc1c(Cl)cccc1Cl)c1cn(-c2ncc(F)cc2F)c2nc(N3C[C@H](O)[C@@H](O)C3)ccc2c1=O [Example 68, N-(2,6-Dichlorophenyl)-1-(3,5-difluoropyridin-2-yl)-7-[(3S,4S)-3,4-dihydroxypyrrolidin-1-yl]-4-oxo-1,4-dihydro-1,8-naphthyridine-3-carboxamide]	0.195	96	
